One series concerns Triticum aestivum. Type of series: in vivo. The following applies: field trial, scored about 4 weeks after application, mean of 2-4 plots. Here is the method: (§1) The seeds or rhizome pieces of the harmful plants and the useful plants were laid out or were present in the soil, and they were grown under natural outdoor conditions. Treatment with the active compounds or active compound combinations was carried out […] before and/or after the emergence of the plants, generally at the 2- to 4-leaf stage, in various dosages using a water application rate of 100 to 400 l/ha (converted).
(§2) After the application (about 4 weeks after the application), the effectiveness of the active compounds or active compound combinations was scored visually by comparing the treated plots to untreated control plots. During scoring, damage and development of all above-ground parts of plants was assessed. Scoring was carried out using a percentage scale (100% effect=all plants have died; 50% effect=50% of the plants and the green parts of the plants have died; 0% effect=no effect observed=like control plot). In each case, the mean score of 2-4 plots was calculated.
(§3) The results are shown in the table below; the effect of the individual application of active compounds (A+B) and C being stated in brackets.

The next series has as its system Veronica hederifolia. The series is classed as in vivo. To be noted: field trial, scored about 4 weeks after application, mean of 2-4 plots. Here is the method:
as §1, §2, §3

[1] abbreviates: application rate 15 g of active substance/hectare.
The mark [2] stands for this setting: application rate 20 g of active substance/hectare.
Setting [3] is: application rate 80 g of active substance/hectare.

The structures appear in SMILES notation. Like-named read-outs stand apart in the source and are kept apart here.

Consider `COc1cc(OC)nc(NC(=O)NS(=O)(=O)N(C)S(C)(=O)=O)n1` [amidosulfuron, 1-(4,6-dimethoxypyrimidin-2-yl)-3-mesyl-(methyl)sulfamoylurea], for which, in the series on Triticum aestivum (setting [1]), the “Triticum aestivum % damage” value stood at 0%. Further, the “Veronica hederifolia % effect” value in the series on Veronica hederifolia (setting [1]) amounted to 20%.

Consider `CCCOc1nn(C(=O)[N-]S(=O)(=O)c2ccccc2C(=O)OC)c(=O)n1C.[Na+]` [propoxycarbazone-sodium], for which the “Triticum aestivum % damage” value with Triticum aestivum (setting [2]) turned out to be 1%. In addition, in the series with Veronica hederifolia (setting [2]), the “Veronica hederifolia % effect” value stood at 25%.

Regarding `CCCCCCCC(=O)Oc1c(I)cc(C#N)cc1I` [ioxynil-octanoate], the “Triticum aestivum % damage” value in the series with Triticum aestivum (setting [3]) is listed as 0%. The “Veronica hederifolia % effect” value with Veronica hederifolia (setting [3]) is given as 45%.
